Measured values: patent publication US20230066286A1, “DEUTERATED TRYPTAMINE DERIVATIVES AND METHODS OF USE” (priority 2020, published 2023)

How the values were obtained:
5-HT1A [1] = molecular target: T1, 5-HT1A (Homo sapiens, UniProt P08908); test: Receptor affinity assay, radioligand competition binding
T1 construct: expressed in transfected cells; host or cells: CHO-K1 or HEK293
T1 sequence (P08908 1-422): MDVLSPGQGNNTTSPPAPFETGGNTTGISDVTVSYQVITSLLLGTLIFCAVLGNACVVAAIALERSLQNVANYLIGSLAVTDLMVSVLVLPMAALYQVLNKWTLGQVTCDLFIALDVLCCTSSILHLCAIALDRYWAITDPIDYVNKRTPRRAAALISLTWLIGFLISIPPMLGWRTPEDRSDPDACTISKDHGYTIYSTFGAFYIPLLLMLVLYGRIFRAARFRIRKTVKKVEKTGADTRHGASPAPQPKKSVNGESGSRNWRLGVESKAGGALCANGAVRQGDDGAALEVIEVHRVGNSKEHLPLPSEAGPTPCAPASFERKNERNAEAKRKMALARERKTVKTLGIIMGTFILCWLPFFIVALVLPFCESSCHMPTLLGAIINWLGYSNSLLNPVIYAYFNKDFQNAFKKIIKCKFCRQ
Method: Receptor Affinity Assays: 5-HT1A, 5-HT2(A,B,C) receptor affinities were determined by radioligand competition binding. Membranes from CHO-K1 or HEK293 cells expressing serotonergic receptors were collected and incubated in assay buffer with Kd concentrations of radioligands and tests compounds that compete for receptor binding sites. After equilibration, the reaction was terminated by collecting ligand-receptor-membrane complexes (Microbeta, PerkinElmer), and radioactivity was measured by a scintillation counter (Microbeta2, PerkinElmer). Data were fit to non-linear curves, and Ki values were calculated per the Cheng-Prusoff equation.

5-HT1A [2] = molecular target: T1, 5-HT1A; test: Receptor function assay, Gi stimulation (reduction in cAMP levels); assay type: cell-based
Method: Receptor Function Assays: 5-HT1A receptor-mediated Gi stimulation (reduction in cyclic adenosine monophosphate (cAMP) levels) and 5-HT2(A,B,C) receptor-mediated Gq stimulation (phosphoinositide hydrolysis leading to the production of inositol phosphate 1 (IP1))-canonical signaling pathways—were measured as previously described (Canal et al., 2013), for example, with a homogeneous time-resolved fluorescence (HTRF) capable microplate reader (e.g., Mithras LB 940, Berthold) using commercially-available kits employing Fluorescence Resonance Energy Transfer (FRET) technology (e.g., LANCE Ultra cAMP TR-FRET (PerkinElmer) and IP-One HTRF (Cisbio) kits). Briefly, CHO-K1 or HEK293 cells expressing serotonergic receptors were incubated with test compounds in stimulation buffer. After equilibration, the reaction was terminated with the donor and acceptor fluorescent conjugates in lysis buffer, and FRET was measured. Data were fit to non-linear curves to calculate potencies (e.g., EC50) and efficacies (e.g., EMAX), relative to positive controls (e.g., serotonin).

[3] = PK study in rats, cassette dosing; assay type: in vivo, rat; details: % change vs. non-deuterated material, 5 mg/kg
Method: (§1) The key PK parameters (presented as a % change vs. non-deuterated materials) are presented in Table 3 to include half-life (T½), area under the curve (AUC), bioavailability (F) and blood-to-plasma ration (BPR). Pharmacokinetics of the deuterated tryptamines was studied in rats. In a typical experiment, run as a cassette dosing, two groups of 5 Wistar female rats (200-250 g) with surgically inserted jugular vein catheter (Charles River, Andover, MA) were fasted for 12 h and then administered 5 mg/kg of the deuterated and 5 mg/kg of the related non-deuterated analog, by oral gavage or via a catheter for each group. At time points 0, 15, 30, 60 min, and 2, 4, 8, and 24 h, the resulting plasma was analyzed for the parent molecule using LC/MS spectroscopy. Two separate groups of 5 animals were used for determining blood-to-plasma ratio (BPR). Each group was sacrificed at time points 15 and 30 min, respectively, and the concentration of the parent drug was determined in the […] and plasma by LC/MS spectroscopy.

[4] = Blood-to-plasma ratio (BPR), parent drug in brain and plasma of rats; assay type: in vivo, rat; details: % change vs. non-deuterated material
Method: as §1

Q: For [2H]C([2H])(Cc1c[nH]c2cccc(O)c12)N(C)C [PI-α,α-d2], which Ki (5-HT1A [1]) is on record?
A: The Ki was 510 nM.

Q: What about the EC50 (5-HT1A [2]) of the same compound?
A: Its EC50 is 200 nM.

Q: And the “AUC, deuterium kinetic isotope effect (% change)” value ([3]; oral gavage or via catheter)?
A: The value was 75%.

Q: What about the “T½, deuterium kinetic isotope effect (% change)” value ([3]; oral gavage or via catheter) of the same compound?
A: Its value is 50%.

Q: And the bioavailability ([3]; female, Wistar, rat, plasma, oral, read-out: F (bioavailability), deuterium kinetic isotope effect (% change))?
A: Its bioavailability is 45%.

Q: And the “BPR, 15 min, deuterium kinetic isotope effect (% change)” value ([4]; rats sacrificed at 15 min)?
A: The value was 100%.

Q: What about the “BPR, 30 min, deuterium kinetic isotope effect (% change)” value ([4]; rats sacrificed at 30 min) of the same compound?
A: Its value is 150%.
